Results as given in PMC10060569 (Frontiers in Pharmacology, 2023).

Target: T1, hP2X2R (Homo sapiens, UniProt Q9UBL9)
T1 construct: expressed in transfected cells; host or cells: Xenopus laevis oocytes (cRNA injection)
T1 sequence (Q9UBL9 1-471): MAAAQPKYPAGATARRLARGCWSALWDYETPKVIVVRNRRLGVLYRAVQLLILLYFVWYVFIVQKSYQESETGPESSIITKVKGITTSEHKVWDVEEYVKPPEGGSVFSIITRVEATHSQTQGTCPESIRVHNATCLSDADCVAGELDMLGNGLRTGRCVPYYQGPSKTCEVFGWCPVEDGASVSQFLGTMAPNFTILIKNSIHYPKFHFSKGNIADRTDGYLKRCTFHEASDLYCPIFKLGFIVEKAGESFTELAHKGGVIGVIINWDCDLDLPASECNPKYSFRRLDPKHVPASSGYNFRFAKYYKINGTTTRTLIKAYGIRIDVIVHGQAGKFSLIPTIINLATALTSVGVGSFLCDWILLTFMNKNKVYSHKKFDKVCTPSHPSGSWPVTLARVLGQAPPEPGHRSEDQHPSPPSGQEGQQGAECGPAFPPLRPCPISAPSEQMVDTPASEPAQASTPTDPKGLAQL
Experiment: TEVC of ATP-induced currents, hP2X2R in X. laevis oocytes (steady-state protocol)
Format: cell-based
Excerpt: Oocyte expression plasmids encoding the wild-type (wt) and N-terminally His-tagged (His-) fusion constructs of the hP2X2R, hP2X3R, hP2X4R, and hP2X7R, and the mutant His-^20RMVL^23KVIV^23S^26N-hP2X1R, S^15V-rP2X3R, and His-S^15V-hP2X3R were the same as used in previous research ([Hausmann et al., 2006]; [Wolf et al., 2011]; [Hausmann et al., 2014]; [Obrecht et al., 2019]). In most cases, the N-terminal His-tagged variants of P2XRs were used here and in the previous studies to allow biochemical analyses on affinity-purified proteins using the same constructs. Although this was not required for the present study, it allows for better comparability with our previous studies. Capped cRNAs of different P2XRs were already available in the research group or were synthesized as previously described ([Schmalzing et al., 1991]; [Stolz et al., 2015]). cRNA was injected into collagenase-defolliculated X. laevis oocytes in aliquots of 41 nl or 23 nl (see Supplementary Table S1 for the amount of cRNA used for expression of the indicated P2XR) using a Nanoliter 2000 injector (World Precision Instruments, Sarasota, United States of America) as described previously ([Hausmann et al., 2014]; [Stolz et al., 2015]; [Obrecht et al., 2019]). To express the heteromeric hP2X2/3 receptor, cRNAs encoding His-hP2X2R and wt-hP2X3R were coinjected at a ratio (w/w) of 1:6. Oocytes were stored at 19°C in an oocyte ringer solution (ORi^+) containing 90 mM NaCl, 1 mM KCl, 1 mM CaCl2, 1 mM MgCl2, and 10 mM HEPES (Carl Roth, Karlsruhe, Germany) adjusted to pH 7.4 with NaOH and supplemented with 50 μg/ml gentamicin (AppliChem, Darmstadt, Germany). The procedures followed for the maintenance of and the surgical treatment for X. laevis adults were approved by the governmental animal care and use committee of the State Agency for Nature, Environment, and Consumer Protection (LANUV, Recklinghausen, Germany; reference no. 81-02.04.2019. A355), in compliance with Directive 2010/63/EU of the European Parliament and of the Council on the protection of animals used for scientific purpose.
Ion currents mediated by P2X receptors were evoked by the indicated concentration of ATP or α,β-meATP and were recorded 1 or 2 days after cRNA injection at ambient temperature at a holding potential of −60 mV by two-electrode voltage clamp (TEVC) as previously described ([Hausmann et al., 2006]). Calcium-free ORi^− solution (90 mM NaCl, 1 mM KCl, 2 mM MgCl2, 10 mM HEPES, pH 7.4) was used to avoid bias due to calcium-activated chloride channels (CaCC) endogenously expressed in X. laevis oocytes ([Miledi, 1982]; [Methfessel et al., 1986]). For recordings of wt-hP2X7R, the composition of the ORi^− solution was modified according to protocols described previously and contained 100 mM NaCl, 2.5 mM KCl, 1 mM MgCl2, 5 mM HEPES, pH 7.4 ([Klapperstück et al., 2000]). The oocytes were continuously superfused with ORi^− by gravity flow (5–10 ml/min). The agonists ATP or α,β-meATP and the investigated NSAIDs were diluted in ORi^− on the day of the recording. The following agonist concentrations were used for the different P2X subtypes: 1 μM ATP (hP2X1R mutant, hP2X3R, rP2X3R, S^15V-hP2X3R, and S^15V-rP2X3R); 10 μM ATP (hP2X2R and hP2X4R); 300 μM free ATP^4- (hP2X7R); and 1 μM α,β-meATP (hP2X2/3R). […]

| Structure (SMILES) | increase in hP2X2R current amplitude (potentiation) on co-application with ATP (10 µM ATP, compared to steady-state current in absence of the drug) [fold] | IC50 (10 µM ATP, steady-state protocol, * no inhibition, but potentiation) | Max. inhibition at 1 mM (10 µM ATP, * no inhibition, but potentiation) | agonist effect (current induced in the absence of ATP) (100 µM diclofenac, 300 µM FFA, absence of ATP) | EC50 (10 µM ATP, concentration–response curve, read-out: half-maximal potentiation value) [µM] |
| --- | --- | --- | --- | --- | --- |
| O=C(O)Cc1ccccc1Nc1c(Cl)cccc1Cl [Diclofenac, diclofenac] | 1.7 | no inh.* | no inh.* | Neither 100 µM diclofenac nor 300 µM FFA induced current |  |
| O=C(O)c1ccccc1Nc1cccc(C(F)(F)F)c1 [Flufenamic acid, flufenamic acid] |  |  |  |  | 158 |
